# Test results taken from the NIST ThermoML archive (doi:10.1021/acs.jced.5b00882).
# Numbers after ± are expanded uncertainties.
# Experiment: not given
# Conditions: 298.15 K; 101.33 kPa; Liquid; Pycnometric method
row,mass density [kg/m3],Structure (SMILES)
1,806 ± 1.5,CCCCO [butan-1-ol]
2,819.2 ± 1.5,CCCCCCCO [heptan-1-ol]
3,821.6 ± 1.5,CCCCCCCCO [octan-1-ol]
4,786.6 ± 0.6,CO [methanol]
5,811.4 ± 1.5,CCCCCO [pentan-1-ol]
6,799.7 ± 1.5,CCCO [propan-1-ol]
7,815.7 ± 1.5,CCCCCCO [hexan-1-ol]
8,785.3 ± 1.5,CCO [ethanol]

# Same assay, conditions: Crystal; DSC
row,Triple point temperature [K],Structure (SMILES)
1,376.35 ± 0.93,"CNC(=O)NC [1,3-dimethylurea]"

# Experiment: Molar enthalpy of transition or fusion
# Conditions: Crystal; DSC
row,Molar enthalpy of transition or fusion [kcal/mol],Structure (SMILES)
1,3.05 ± 0.0932,"CNC(=O)NC [1,3-dimethylurea]"
